In assay [1] the target is Heat shock protein HSP 90-alpha (Homo sapiens, UniProt P07900). The class given is functional, organism-based.
A further assay concerns the target T1, Protein skinhead-1 (Caenorhabditis elegans, UniProt P34707).
T1 sequence (P34707 whole entry): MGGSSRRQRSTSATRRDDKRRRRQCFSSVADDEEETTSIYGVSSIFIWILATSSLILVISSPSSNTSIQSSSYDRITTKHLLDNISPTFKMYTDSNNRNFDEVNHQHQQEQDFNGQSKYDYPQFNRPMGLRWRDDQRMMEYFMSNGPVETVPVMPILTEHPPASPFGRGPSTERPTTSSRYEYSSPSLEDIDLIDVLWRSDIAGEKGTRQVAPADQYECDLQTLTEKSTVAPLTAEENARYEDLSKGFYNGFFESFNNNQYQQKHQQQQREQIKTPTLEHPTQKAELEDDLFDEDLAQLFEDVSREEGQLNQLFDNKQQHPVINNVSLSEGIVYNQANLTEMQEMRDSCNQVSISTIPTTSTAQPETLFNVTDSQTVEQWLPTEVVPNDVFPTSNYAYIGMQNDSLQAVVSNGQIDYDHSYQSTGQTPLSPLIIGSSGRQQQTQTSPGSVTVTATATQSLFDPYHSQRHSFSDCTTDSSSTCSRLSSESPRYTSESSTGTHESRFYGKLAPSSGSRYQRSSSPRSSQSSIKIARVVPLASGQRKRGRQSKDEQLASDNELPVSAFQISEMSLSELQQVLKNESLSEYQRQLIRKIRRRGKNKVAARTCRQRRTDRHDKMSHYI
The class given is functional.

The target in assay [2] is T2, RNA-binding protein pos-1 (Caenorhabditis elegans, UniProt G5EF15).
T2 sequence (G5EF15 whole entry): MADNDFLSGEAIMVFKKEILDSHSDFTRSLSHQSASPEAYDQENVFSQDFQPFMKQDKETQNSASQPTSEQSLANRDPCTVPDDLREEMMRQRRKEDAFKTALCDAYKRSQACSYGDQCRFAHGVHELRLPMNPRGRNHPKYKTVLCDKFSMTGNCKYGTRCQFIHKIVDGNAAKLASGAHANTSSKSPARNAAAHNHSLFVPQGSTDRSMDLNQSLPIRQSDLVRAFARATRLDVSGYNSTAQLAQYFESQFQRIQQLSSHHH
As to the kind of experiment: inhibitors of POS-1/mex-3 RNA binding, dose response, biochemical, fluorescence polarization (AID 1964).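 Further: purified POS-1 fused to maltose binding protein made in E. coli; potency of compounds blocking POS-1 binding to fluorescent RNA.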 A general note: Polarisation of emitted light reports the rotation of a fluorescent probe.

Assay [3] deals with T3, Zinc finger protein mex-5 (Caenorhabditis elegans, UniProt Q9XUB2).
T3 sequence (Q9XUB2 whole entry): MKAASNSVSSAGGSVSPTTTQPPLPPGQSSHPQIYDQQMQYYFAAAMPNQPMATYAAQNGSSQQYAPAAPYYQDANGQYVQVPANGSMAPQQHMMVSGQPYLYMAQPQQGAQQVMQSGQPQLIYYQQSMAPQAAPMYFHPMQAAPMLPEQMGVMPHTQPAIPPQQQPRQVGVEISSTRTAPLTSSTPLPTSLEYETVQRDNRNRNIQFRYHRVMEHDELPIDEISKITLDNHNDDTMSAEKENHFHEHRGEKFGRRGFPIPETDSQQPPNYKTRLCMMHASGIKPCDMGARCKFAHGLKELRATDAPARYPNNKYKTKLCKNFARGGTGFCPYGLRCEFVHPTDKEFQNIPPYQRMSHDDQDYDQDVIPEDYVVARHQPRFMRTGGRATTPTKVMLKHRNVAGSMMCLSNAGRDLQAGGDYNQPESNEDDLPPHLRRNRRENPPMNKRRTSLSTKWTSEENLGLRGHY
As to the kind of experiment: MEX-5/TCR-2 RNA interaction inhibitors, dose response, biochemical, C. elegans, fluorescence polarization (AID 1960).

The target of assay [4] is T4, Polyadenylate-binding protein 1 (Homo sapiens, UniProt P11940). As to the kind of experiment: PABP1 MLLE–PAM2 interaction inhibitors, dose response, miRNA deadenylation inhibitor project, biochemical, fluorescence polarization, Cy5-PAM2 peptide, secondary (AID 602260). The class given is functional. To be noted: read-out: IC50_Mean.
T4 sequence (P11940 whole entry): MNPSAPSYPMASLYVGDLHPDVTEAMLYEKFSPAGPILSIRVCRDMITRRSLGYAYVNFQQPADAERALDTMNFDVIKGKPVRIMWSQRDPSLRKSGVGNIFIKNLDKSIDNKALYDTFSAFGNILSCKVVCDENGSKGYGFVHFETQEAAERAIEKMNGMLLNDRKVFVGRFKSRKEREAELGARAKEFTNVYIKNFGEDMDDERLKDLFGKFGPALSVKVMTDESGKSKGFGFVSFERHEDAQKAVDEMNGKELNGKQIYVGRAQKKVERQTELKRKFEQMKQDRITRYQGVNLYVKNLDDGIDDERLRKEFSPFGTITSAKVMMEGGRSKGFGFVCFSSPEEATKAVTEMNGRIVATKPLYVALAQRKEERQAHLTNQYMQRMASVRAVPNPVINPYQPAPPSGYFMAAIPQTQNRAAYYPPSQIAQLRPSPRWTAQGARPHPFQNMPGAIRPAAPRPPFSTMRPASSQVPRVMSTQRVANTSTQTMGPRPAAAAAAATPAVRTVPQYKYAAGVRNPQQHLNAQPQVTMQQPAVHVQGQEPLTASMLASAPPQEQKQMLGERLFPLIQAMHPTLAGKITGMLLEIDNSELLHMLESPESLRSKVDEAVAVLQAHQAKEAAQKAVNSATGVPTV
The target of assay [5] is T4, Polyadenylate-binding protein 1. The assay can be described thus: PABP1 MLLE–PAM2 binding inhibitor potency, dose response, biochemical, fluorescence polarization, FITC-PAM2 peptide (AID 602259). The class given is functional. To be noted: read-out: IC50_Mean.
A further assay addresses Nonstructural protein 1 (Influenza A virus, UniProt Q194T2). The class given is functional, Influenza A virus (A/California/07/2009(H1N1)).
Another assay concerns the target T5, Streptokinase A (Streptococcus pyogenes serotype M1, UniProt P10520).
T5 sequence (P10520 whole entry): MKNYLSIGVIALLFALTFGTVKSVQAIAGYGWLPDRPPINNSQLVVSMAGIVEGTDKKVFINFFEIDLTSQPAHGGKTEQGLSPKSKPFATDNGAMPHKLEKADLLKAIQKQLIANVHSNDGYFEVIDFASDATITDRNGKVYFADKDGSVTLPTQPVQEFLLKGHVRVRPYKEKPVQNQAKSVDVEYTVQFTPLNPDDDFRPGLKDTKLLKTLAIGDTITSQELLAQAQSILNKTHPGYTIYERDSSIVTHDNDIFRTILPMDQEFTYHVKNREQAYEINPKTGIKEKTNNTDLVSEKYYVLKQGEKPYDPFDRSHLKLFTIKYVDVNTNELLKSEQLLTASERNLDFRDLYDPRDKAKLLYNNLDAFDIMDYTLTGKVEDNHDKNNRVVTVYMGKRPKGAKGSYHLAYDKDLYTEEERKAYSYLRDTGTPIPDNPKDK
The assay can be described thus: S. pyogenes streptokinase expression inhibitors, potency, dose response, plasminogen activation absorbance, OD405 (AID 1914).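 Further: secreted streptokinase activity via plasminogen activation per viability signal from cell pellet.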 The class given is functional, Streptococcus pyogenes M1 GAS.

Assay [6] concerns the target T6, Corticotropin-releasing factor receptor 2/Corticotropin-releasing factor-binding protein (Homo sapiens, UniProt P24387+Q13324).
T6 sequence (Q13324 whole entry): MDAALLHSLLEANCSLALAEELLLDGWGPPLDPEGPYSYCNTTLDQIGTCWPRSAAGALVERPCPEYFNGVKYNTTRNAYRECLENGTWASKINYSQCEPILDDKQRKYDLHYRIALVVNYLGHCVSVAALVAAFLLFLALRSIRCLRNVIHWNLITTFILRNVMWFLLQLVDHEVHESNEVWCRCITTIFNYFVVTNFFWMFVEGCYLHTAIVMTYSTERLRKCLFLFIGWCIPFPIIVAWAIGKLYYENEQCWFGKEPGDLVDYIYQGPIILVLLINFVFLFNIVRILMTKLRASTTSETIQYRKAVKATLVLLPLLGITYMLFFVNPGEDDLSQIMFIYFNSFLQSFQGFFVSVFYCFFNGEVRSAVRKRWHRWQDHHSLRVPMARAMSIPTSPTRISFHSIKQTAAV
T6 sequence (P24387 whole entry): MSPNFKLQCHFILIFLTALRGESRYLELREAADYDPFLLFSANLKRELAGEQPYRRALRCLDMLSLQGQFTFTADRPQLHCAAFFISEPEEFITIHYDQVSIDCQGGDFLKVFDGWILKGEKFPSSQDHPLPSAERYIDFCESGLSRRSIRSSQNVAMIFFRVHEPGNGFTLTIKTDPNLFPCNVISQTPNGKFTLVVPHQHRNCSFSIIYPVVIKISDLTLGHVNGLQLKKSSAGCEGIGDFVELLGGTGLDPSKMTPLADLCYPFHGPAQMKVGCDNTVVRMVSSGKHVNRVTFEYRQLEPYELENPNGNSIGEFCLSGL
As to the kind of experiment: Dose Response confirmation of uHTS hits for small molecule antagonists of the CRF-binding protein and CRF-R2 receptor complex. The class given is functional. To be noted: read-out: IC50_Mean.

Assay [7] has as its target T6, Corticotropin-releasing factor receptor 2/Corticotropin-releasing factor-binding protein. As to the kind of experiment: activators of CRF receptor 2 with binding protein – uHTS hits, confirmation (AID 602473). The class given is functional. To be noted: read-out: EC50_Mean.
Assay [8] deals with T7, Rac GTPase-activating protein 1 (Homo sapiens, UniProt Q9H0H5).
T7 sequence (Q9H0H5 whole entry): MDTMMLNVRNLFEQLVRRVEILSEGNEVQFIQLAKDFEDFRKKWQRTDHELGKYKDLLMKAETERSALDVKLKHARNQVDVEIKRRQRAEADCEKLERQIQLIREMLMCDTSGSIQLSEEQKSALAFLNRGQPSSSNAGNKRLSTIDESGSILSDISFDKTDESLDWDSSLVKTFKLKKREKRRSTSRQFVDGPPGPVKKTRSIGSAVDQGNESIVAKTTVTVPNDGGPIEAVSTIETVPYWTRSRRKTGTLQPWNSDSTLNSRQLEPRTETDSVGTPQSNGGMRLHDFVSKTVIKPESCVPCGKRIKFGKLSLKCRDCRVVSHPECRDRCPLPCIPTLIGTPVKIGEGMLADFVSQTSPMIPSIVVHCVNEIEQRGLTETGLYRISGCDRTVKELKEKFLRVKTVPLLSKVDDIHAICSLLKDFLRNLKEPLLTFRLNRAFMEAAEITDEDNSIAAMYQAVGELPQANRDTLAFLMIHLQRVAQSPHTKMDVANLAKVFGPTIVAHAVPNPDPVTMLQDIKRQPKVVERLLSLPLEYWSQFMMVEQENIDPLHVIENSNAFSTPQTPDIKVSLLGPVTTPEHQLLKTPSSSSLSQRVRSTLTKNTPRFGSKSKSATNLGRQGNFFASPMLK
The assay can be described thus: MgcRacGAP GTPase-activating activity inhibitors, confirmation, biochemical, ADP Hunter fluorescence, primary and confirmatory (AID 624330). The class given is functional.

Calls of active or inactive are those of the source.

Sequence of Nonstructural protein 1 (Q194T2 whole entry): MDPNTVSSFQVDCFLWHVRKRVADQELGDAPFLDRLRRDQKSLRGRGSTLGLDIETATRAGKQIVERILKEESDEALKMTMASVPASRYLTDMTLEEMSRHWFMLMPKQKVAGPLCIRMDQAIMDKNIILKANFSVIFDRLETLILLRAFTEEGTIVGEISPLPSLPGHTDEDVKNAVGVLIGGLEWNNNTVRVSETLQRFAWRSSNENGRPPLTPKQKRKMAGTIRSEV

Regarding `Oc1ccc(-c2c(-c3ccsc3)sc3ccccc23)cc1`, the AC50 in [1] was 3.3 µM (active). Take `CCCOc1ccc(N2C(=O)CC(N(CCc3ccc(OC)cc3)C(=O)c3cccc(F)c3)C2=O)cc1` (configuration not stated): the IC50 at Protein skinhead-1 was > 100 µM (inactive). Take `O=C(COC(=O)CCNS(=O)(=O)c1ccccc1)Nc1ccc(OC(F)F)cc1`: on Protein skinhead-1, the IC50 is > 100 µM (inactive). As to `COc1cc([C@H](Cc2ccccc2)NC(C)=O)oc(=O)c1`, the EC50 in assay [2] is 38.7 µM (active); in assay [3], 27.9 µM (active).

Take `O=C(NC1CCCCCC1)C(=S)NCCc1ccccc1`: the IC50 in [4] and in assay [5] was > 66 µM (inactive) in each case. As to `c1csc(C2Nc3cccc4cccc(c34)N2)c1`, the IC50 in assay [4] and in [5] was > 66 µM (inactive) throughout. For the molecule `COc1cccc(CNC(=O)CSc2ccc(-c3ccccn3)nn2)c1`, the IC50 at Nonstructural protein 1 is 20.6 µM (active). `COCCN1CCC(CNCc2c[nH]nc2-c2ccc(C)c(C)c2)C1` (configuration not stated): the EC50 in assay [2] is > 300 µM (not active); in assay [3], > 300 µM (inconclusive). For `CCOc1ccc(-n2cc(-c3ccccc3)c3c(=S)[nH]cnc32)cc1`, the EC50 at Streptokinase A was > 150 µM (not active). For the same molecule, the IC50 in [4] and in assay [5] was > 66 µM (inactive) in each case.

As for `CCOc1ccc(-c2nnc(-c3ccccc3)o2)cc1`, the IC50 on Protein skinhead-1 is > 100 µM (inactive). Turning to `CCCCn1c(NC(=S)Nc2ccccc2)nc2ccccc21`, the IC50 in [4] and in assay [5] was > 66 µM (inactive) each time. On to `COc1ccc2cc3cc(C(=O)N4CCN(Cc5ccc6c(c5)OCO6)CC4)oc3nc2c1`, for which, at Nonstructural protein 1, the IC50 is > 100 µM (active). As for `O=C(NCc1ccncc1)C(=O)N/N=C/c1ccccn1`, the results for the EC50 in [2] and in [3] were 86.1 µM (active) and 24.2 µM (active), respectively. In the case of `Cc1c(N=NC2=C(O)CCCC2=O)c(=O)n(-c2ccccc2)n1C`, at Nonstructural protein 1, the IC50 was 2.9 µM (active).

As for `CCOC(=O)c1sc(-c2ccc(C(F)(F)F)cc2)nc1O`, the AC50 in [1] is 3.14 µM (active). Also, the IC50 in [6] is > 47.1 µM (inactive). In [7], the EC50 was 11.9 µM (active). Take `O=S(=O)(/C=C/c1ccccc1)NC1CCCCCCC1`: the AC50 in assay [1] was 24.7 µM (active). For the molecule `CCOc1ccccc1NC(=O)Cn1c(=O)oc2cc(Cl)ccc21`, on Protein skinhead-1, the IC50 was > 100 µM (inactive).

On to `O=[N+]([O-])c1ccc(N/N=C2\CC3CC=CC23)c([N+](=O)[O-])c1` (configuration not stated), for which the IC50 on Nonstructural protein 1 was 35.3 µM (active).

As for `COC(=O)c1ccc(-n2c(C)cc(/C=N/Nc3nc(C)cc(O)n3)c2C)cc1`, the EC50 in assay [2] and in [3] was > 300 µM (not active) throughout. Regarding `O=C(NC(=S)Nc1ccc(CN2CCCCC2)cc1)c1ccco1`, the IC50 in assay [4] and in assay [5] was > 66 µM (inactive) in each case. For the molecule `COc1cccc(OCCn2cc(C=O)c3ccccc32)c1`, the EC50 in [2] and in assay [3] was > 300 µM (not active) throughout.

For `CCOC(=O)c1ccccc1N1C(=O)CSC1=S`, the IC50 in [4] and in assay [5] was > 66 µM (inactive) each time. Take `Cc1cc(NC(=O)CSc2nnc(-c3ccncc3)n2-c2ccc(F)cc2)no1`: at Protein skinhead-1, the IC50 was > 100 µM (inactive). Regarding `CN(CC(=O)NCc1ccccn1)S(=O)(=O)c1ccc(Br)cc1`, the EC50 in [2] and in assay [3] was > 300 µM (not active) in each case. Consider `Fc1ccc(CSc2ncnc3ccccc23)cc1`, for which the IC50 at Protein skinhead-1 was 31.8 µM (active). Consider `COc1ccc(S(=O)(=O)NCc2ccc3c(c2)cc(C)n3C)cc1`, for which the IC50 on Nonstructural protein 1 is 66.3 µM (active); in assay [4], > 66 µM (inactive); in assay [5] it was > 66 µM (inactive). As to `COc1ccc(N2CCN(c3c(S(=O)(=O)c4ccccc4)cnc4ccc(OC)cc34)CC2)cc1`, the AC50 in assay [1] was 2.76 µM (active). On to `O=C1N=C(N2CCCCC2)S/C1=C/C1=Cc2ccccc2OC1`, for which the EC50 in [2] and in assay [3] was > 300 µM (not active) each time. As to `Oc1ccc(-c2csc(Nc3cccnc3)n2)cc1`, the IC50 in assay [8] was 18.2 µM (active).

The AC50 is the concentration at which the activity in the assay is half-maximal.
